Test: Lipophilicity, log D of compound at pH 7.4
Settings: buffer

A logD of 3 was found for `CO[C@H]1/C(F)=C/C[C@H](C)[C@@H](C)S(=O)(=O)NC(=O)c2ccc3c(c2)N(C[C@@H]2CCO[C@H]21)C[C@@]1(CCCc2cc(Cl)ccc21)CO3` in this work.

From ChEMBL document CHEMBL5584342, “The Missing Link(er): A Roadmap to Macrocyclization in Drug Discovery” (J Med Chem, 2024)
